This is an account of results in patent US20220409649A1, “a-GLUCOSIDASE INHIBITOR, INVERTASE INHIBITOR, AND SUGAR ABSORPTION INHIBITOR” (Kinki University, priority 2019, published 2022).

Each structure is given as a SMILES string.

Experiment [1] addresses T1, sucrase (sucrose as substrate) (Rattus norvegicus, UniProt P23739).
T1 construct: the supernatant was used as a purified enzyme; from tissue; host or cells: rat intestine (acetone powder, supernatant of homogenate)
Nature of the experiment: Screening of enzyme inhibition, rat intestinal acetone powder crude enzyme, sucrose as substrate. It counts as biochemical. To be noted: 10 μL inhibitor solution (3.4 mg/mL diluted 100 times), five hours. How it is done:
(§1) As a crude enzyme mixture, 50 mg of rat intestinal acetone powder was added to 450 μL of 50 mmol/L phosphate buffer solution (pH 6.0), the mixture was stirred for 30 seconds, and then homogenized. Thereafter, the mixture was centrifuged (10000 rpm, 4° C., 20 minutes), and the supernatant was used as a purified enzyme (50 mg/450 μL). Sucrose and two types of glucose disaccharides (maltose and isomaltose) having different bonds were used as substrates. 3.4 mg of each of the two types of substrates was dissolved in 100 μL of phosphate buffer solution, and each solution was used as a substrate solution. A solution obtained by dissolving 3.4 mg of the compound (I) as a competitive inhibitor in 1 mL of phosphate buffer solution and diluting 100 times, was used as an inhibitor solution. 100 μL of the substrate solution and 10 μL of the inhibitor solution were mixed, and pre-incubation was performed for five minutes. Then, 90 μL of an enzyme solution was added to start incubation. Five hours later, 10 μL of the reaction solution was heated in a water bath for 10 minutes to stop the reaction, followed by the PMP derivatization, and then the capillary electrophoresis. An enzyme reaction solution under the same conditions without the inhibitor was used as a blank. The inhibition rate was calculated for each substrate using the same equation as that in the invertase inhibition analysis.

Experiment [2] has as its system maltase (maltose as substrate). Nature of the experiment: Screening of enzyme inhibition, rat intestinal acetone powder crude enzyme, maltose as substrate. It counts as biochemical. Particulars: 10 μL inhibitor solution (3.4 mg/mL diluted 100 times), five hours. How it is done: as §1
Experiment [3] deals with T2, isomaltase (isomaltose as substrate) (Rattus norvegicus, UniProt P23739).
T2 construct: the supernatant was used as a purified enzyme; from tissue; host or cells: rat intestine (acetone powder, supernatant of homogenate)
T2 sequence (P23739 1-1013 limits assumed): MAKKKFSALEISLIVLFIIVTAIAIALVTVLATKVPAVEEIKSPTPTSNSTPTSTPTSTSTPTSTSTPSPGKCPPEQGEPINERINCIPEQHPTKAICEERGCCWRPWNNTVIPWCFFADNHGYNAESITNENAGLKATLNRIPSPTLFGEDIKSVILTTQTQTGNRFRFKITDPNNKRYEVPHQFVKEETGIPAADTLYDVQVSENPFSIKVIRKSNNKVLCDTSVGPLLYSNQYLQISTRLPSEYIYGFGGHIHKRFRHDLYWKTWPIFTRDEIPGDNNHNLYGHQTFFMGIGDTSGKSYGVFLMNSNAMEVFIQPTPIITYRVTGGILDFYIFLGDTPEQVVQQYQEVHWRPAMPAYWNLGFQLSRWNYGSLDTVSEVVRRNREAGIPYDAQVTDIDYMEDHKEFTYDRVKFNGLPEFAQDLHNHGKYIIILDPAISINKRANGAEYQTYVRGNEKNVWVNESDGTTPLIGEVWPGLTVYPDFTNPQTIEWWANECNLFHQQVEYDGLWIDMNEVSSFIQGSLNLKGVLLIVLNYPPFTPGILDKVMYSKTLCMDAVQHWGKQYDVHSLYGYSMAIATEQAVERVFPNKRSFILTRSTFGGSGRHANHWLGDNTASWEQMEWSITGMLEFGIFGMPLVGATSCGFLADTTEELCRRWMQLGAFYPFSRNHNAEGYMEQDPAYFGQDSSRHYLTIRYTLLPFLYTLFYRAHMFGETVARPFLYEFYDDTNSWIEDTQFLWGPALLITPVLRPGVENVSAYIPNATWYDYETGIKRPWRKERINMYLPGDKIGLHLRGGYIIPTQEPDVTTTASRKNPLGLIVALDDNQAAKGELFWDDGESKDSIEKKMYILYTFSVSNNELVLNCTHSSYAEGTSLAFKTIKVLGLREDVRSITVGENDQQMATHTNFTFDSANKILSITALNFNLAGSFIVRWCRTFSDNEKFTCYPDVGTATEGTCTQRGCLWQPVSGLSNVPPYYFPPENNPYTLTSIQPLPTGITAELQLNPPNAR
T2 sequence (P23739 1014-1841 limits assumed): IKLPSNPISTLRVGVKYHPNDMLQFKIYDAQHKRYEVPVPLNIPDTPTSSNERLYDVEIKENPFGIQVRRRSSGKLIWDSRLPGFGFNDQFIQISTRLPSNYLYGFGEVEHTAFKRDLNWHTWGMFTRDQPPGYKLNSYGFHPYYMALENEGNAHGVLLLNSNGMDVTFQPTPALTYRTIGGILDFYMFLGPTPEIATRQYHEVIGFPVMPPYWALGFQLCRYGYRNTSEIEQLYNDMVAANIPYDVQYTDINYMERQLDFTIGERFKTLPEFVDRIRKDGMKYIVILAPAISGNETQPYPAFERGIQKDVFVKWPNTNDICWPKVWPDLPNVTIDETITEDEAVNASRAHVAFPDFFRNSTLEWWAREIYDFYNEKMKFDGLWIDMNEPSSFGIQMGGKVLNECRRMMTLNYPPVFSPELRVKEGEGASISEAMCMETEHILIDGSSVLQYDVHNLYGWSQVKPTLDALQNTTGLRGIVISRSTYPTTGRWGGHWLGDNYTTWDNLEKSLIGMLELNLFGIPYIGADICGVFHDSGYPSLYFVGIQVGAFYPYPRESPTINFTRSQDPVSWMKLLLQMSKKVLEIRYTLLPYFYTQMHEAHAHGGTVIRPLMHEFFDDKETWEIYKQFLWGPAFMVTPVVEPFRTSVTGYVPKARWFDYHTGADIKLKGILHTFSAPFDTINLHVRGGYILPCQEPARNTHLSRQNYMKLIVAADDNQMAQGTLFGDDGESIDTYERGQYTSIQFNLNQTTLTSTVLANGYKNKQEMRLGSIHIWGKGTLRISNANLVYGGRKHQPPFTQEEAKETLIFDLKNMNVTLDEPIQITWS
Nature of the experiment: Screening of enzyme inhibition, rat intestinal acetone powder crude enzyme, isomaltose as substrate. It counts as biochemical. To be noted: 10 μL inhibitor solution (3.4 mg/mL diluted 100 times), five hours. As to the method: as §1

The nature of experiment [4]: Oral glucose tolerance testing using sucrose, normal rats. It counts as in vivo, normal Wistar type rats. To be noted: oral co-administration with sucrose 1.5 g/kg, FIG. 7. As to the method: (§2) Glucose tolerance testing of normal Wistar type rats and OLETF rats with diabetes was performed using the compound (I). After fasted for 14 hours, glucose was loaded, and blood taken from tail veins of the rats was subjected to various tests.
(§3) An aqueous solution containing […] of sucrose (hereinafter, also referred to as “A Liquid”) and an aqueous solution containing […] of sucrose and 0.085 mg/ml of the compound (I) (hereinafter, also referred to as “B Liquid”) were prepared. Six normal 7-week-old rats (male) were divided into two groups. In one group, the A liquid was orally administered such that an amount of sucrose was 1.5 g/kg based on the rat body weight. In the other group, the B liquid was orally administered such that the amount of sucrose was 1.5 g/kg based on the rat body weight. Blood was taken from the tail veins of the rats before the administration and in 30 minutes, 60 minutes, 90 minutes, and 120 minutes after the administration, and then plasma was obtained by centrifugation. For the obtained plasma, glucose and insulin were quantified.

Experiment [5] can be described thus: Oral glucose tolerance testing using sucrose, OLETF rats with diabetes. To be noted: oral co-administration with sucrose, FIG. 8. It counts as in vivo. As to the method: as §2, §3
A further experiment has as its target invertase (Saccharomyces cerevisiae, UniProt P00724). Nature of the experiment: Invertase inhibition analysis by compound (I). It counts as biochemical. As to the method:
For invertase inhibition analysis, 100 μg of sucrose as a substrate and 1 μg, 10 μg, or 100 μg of the compound (I) being the invertase inhibitor were added to 50 μL of 100 mmol/L acetate buffer solution, and pre-incubation was performed at 37° C. for five minutes. Thereafter, 50 μL of 0.2 U/mL invertase solution was added, and incubation was performed for 15 minutes. Thereafter, 10 μL of the reaction mixture was heated in a water bath to inactivate the enzyme and evaporated and dried, and the PMP derivatization was performed. A substance subjected to the enzyme reaction under the same conditions without adding the inhibitor was used as a blank. In each sample, the concentration required for the compound (I) to inhibit 50% of the enzyme was defined as IC50. An inhibition rate by the compound (I) was calculated using a following equation.
Inhibition rate (%)=[D1−(D2−D3)/1]×100 (Equation 1)
D1: Peak area of glucose in blank sample
D2: Peak area of glucose in each sample after enzyme reaction
D3: Peak area of glucose contained in inhibitor as an impurity
The IC50 value was calculated from a dose-response curve of the compound (I) used as the inhibitor.

Experiment [6] has as its system Maltase α-(1-4)glucosidase. Nature of the experiment: Maltase inhibition analysis by compound (I) (Table 2). Type of experiment: biochemical.

Chain of invertase (P00724 20-532): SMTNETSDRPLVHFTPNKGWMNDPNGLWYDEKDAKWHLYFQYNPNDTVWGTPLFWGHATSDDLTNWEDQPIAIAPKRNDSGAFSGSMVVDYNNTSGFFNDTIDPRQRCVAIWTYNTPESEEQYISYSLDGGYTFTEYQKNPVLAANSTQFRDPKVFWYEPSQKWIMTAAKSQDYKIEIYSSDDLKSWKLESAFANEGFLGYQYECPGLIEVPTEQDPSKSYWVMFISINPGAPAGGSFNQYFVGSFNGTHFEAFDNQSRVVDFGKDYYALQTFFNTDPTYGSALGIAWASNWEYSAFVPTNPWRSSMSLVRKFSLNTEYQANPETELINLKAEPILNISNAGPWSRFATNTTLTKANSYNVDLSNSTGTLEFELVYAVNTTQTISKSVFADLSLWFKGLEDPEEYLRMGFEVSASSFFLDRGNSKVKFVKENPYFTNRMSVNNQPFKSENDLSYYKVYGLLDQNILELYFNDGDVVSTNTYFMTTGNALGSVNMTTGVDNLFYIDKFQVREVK
T1 sequence (P23739 1-1013 limits assumed): as the sequence (P23739 1-1013 limits assumed) above
T1 sequence (P23739 1014-1841 limits assumed): as the sequence (P23739 1014-1841 limits assumed) above

As for `OCC1OC(CO)(OCC2OC(O)C(O)C(O)C2O)C(O)C1O` (centres unmarked) [compound (I), Maplebiose], the Inhibition rate is recorded as 12.3% in experiment [1], 9.4% in experiment [2] and 3.3% in experiment [3]. Also, the “changes with time of insulin” value in experiment [4] and in experiment [5] was “similar” each time. Further, the “plasma glucose value vs rats not administered with the compound (I)” value in experiment [4] is recorded as “significantly lower”. The “plasma glucose value relative to rats not administered with the compound (I)” value in experiment [5] was “about 50%”. Also, the “Peak response (Glc)” value is 18.2 at invertase (1 μg inhibitor), 17.2 at invertase (10 μg inhibitor) and 23.1 on invertase (100 μg inhibitor). The “Inhibition (%)” value in experiment [6] (1 μg inhibitor) was determined as 39.1%; in experiment [6] (10 μg inhibitor), 49.4%; in experiment [6] (100 μg inhibitor) it was 54.2%. The IC50 in experiment [6] (calculated using a straight line from concentrations and inhibition rates) is 1720 µM.

Usually IC50 stands for the concentration needed to halve the response being measured.
